According to patent US9902986B2, “Enterobactin conjugates and uses thereof” (Massachusetts Institute of Technology, priority 2013, dated 2018):

Columns and labels:
[1] = test system: E. coli UTI89; test: Competition assay with native siderophores, E. coli UTI89; format: cell-based, Escherichia coli; settings: conjugate 100 nM, varied Ent, MGE or DGE, 50% MHB, 200 μM DP, 30° C., t=19 h
Experimental: Ent was synthesized following a literature procedure^55 and stored as DMSO stock solution at −20° C. MGE and DGE were prepared from Ent using MceC and IroB as described for MGE-PEG3-N3 and DGE-PEG3-N3.
(§1) In an exemplary experiment, select conjugates (Ent-Amp, MGE-Amp, and DGE-Amp) with select native siderophores (Ent, MGE, and DGE) were tested against the uropathogenic strain E. coli UTI89 in 50% MHB, t=19 h, 30° C. […] The concentration of the conjugates was fixed at 100 nM, and the concentration of the native siderophores was varied. […] These observations indicate that Ent, MGE, Ent-Amp, and MGE-Amp may enter via both FepA and IroN with different efficiency, but DGE and DGE-Amp may only enter via IroN.
as §1, with “In another” for “In an”, “100 nM” for “100 nM,”

[2] = test system: mixed culture of E. coli K-12 and E. coli UTI89; test: Mixed culture assay, E. coli K-12 and E. coli UTI89; format: cell-based, Escherichia coli; settings: iron-deficient conditions (200 μM DP), 50% MHB, 30° C., t=19 h
Text: (§2) No antibiotic marker was included in these cultures.

[3] = test system: mixed culture of E. coli K-12 and E. coli CFT073; settings: iron-deficient conditions (200 μM DP), 50% MHB, 30° C., t=19 h
Experimental: as §2
2,2′-dipyridyl (DP, 200 μM) was added to provide conditions of iron limitation.

[4] = test system: E. coli UTI89; test: Antimicrobial activity assay, E. coli UTI89; format: cell-based, Escherichia coli; settings: 50% MHB, 200 μM DP (iron-deficient), 30° C., t=19 h
Experimental: No antibiotic marker was included in these cultures. […] Bacterial growth was determined by measuring OD600 using a BIOTEK SYNERGY HT plate reader. Each well condition was prepared in duplicate, and at least three independent replicates were conducted on different days. The resulting mean OD600 are reported and the error bars are the standard deviation.
In another exemplary experiment, antibacterial activities of the conjugates were tested against E. coli UTI89 in 50% MHB at 30° C., t=19 h. […] Under iron-deficient conditions, Ent-Amp, MGE-Amp, and DGE-Amp provided a complete growth inhibition at 100 nM.

[5] = test system: uropathogenic E. coli and non-pathogenic E. coli; test: Mixed culture assays (summary), uropathogenic and non-pathogenic E. coli; format: cell-based, Escherichia coli; settings: uropathogenic with non-pathogenic E. coli
Text: as §2

[6] = test system: E. coli CFT073; test: Antimicrobial activity assay, E. coli CFT073; format: cell-based, Escherichia coli; settings: for concentration providing complete growth inhibition: 200 μM DP (iron-deficient); for effect of preloading Fe(III) on antibacterial activity: Fe(III)-loaded versus apo conjugates
Experimental: (§3) Overnight cultures of the bacterial strains were prepared by inoculating 5 mL of LB with the bacterial freezer stocks and the cultures were incubated at 37° C. in a tabletop incubator shaker set at 150 rpm. The overnight culture grew to saturation and was diluted 1:100 into 5 mL of fresh LB medium containing DP (200 μM) and incubated at 37° C. with shaking at 150 rpm until OD600 reached 0.6. The cultures were subsequently diluted to an OD600 value of 0.001 in 50% MHB medium (11.5 g/L) with or without DP (200 μM). No antibiotic marker was included in these cultures. A 90-μL aliquot of the diluted culture was combined with a 10-μL aliquot of a 10× solution of the tested compounds in a 96-well plate, which was wrapped in […] and incubated at 30° C. with shaking at 150 rpm for 19 h. Bacterial growth was determined by measuring OD600 using a BIOTEK SYNERGY HT plate reader. Each well condition was prepared in duplicate, and at least three independent replicates were conducted on different days. The resulting mean OD600 are reported and the error bars are the standard deviation.
In another exemplary experiment, antibacterial activities of the conjugates were tested against E. coli CFT073 in 50% MHB at 30° C., t=19 h. DP (200 μM) was added to provide conditions of iron limitation.
In another exemplary experiment, antibacterial activities of Fe(III)-loaded or apo Ent-β-lactam conjugates (Ent-Amp and Ent-Amx) and their glucosylated derivatives (MGE-Amp, MGE-Amx, DGE-Amp, and DGE-Amx) against the uropathogenic strain E. coli CFT073 were tested in 50% MHB, 30° C., t=19 h. 2,2′-dipyridyl (DP, 200 μM) was added to provide conditions of iron limitation.

[7] = test system: various E. coli strains; test: Antibacterial activity against a panel of E. coli strains; format: cell-based, Escherichia coli; settings: 6 strains of E. coli (K-12, B, H9049, 25922, UTI89, CFT073)
Experimental: as §3
Ampicillin and amoxicillin are β-lactam antibiotics that have periplasmic targets in Gram-negative bacteria and inhibit cell wall biosynthesis. The antibacterial activity of Ent-ampicillin and Ent-amoxicillin conjugates 44 and 45 was evaluated in vitro against a panel of Gram-negative and positive-bacteria.
Select Ent-β-lactam conjugates (Ent-Amp and Ent-Amx) and their glucosylated derivatives (MGE-Amp, MGE-Amx, DGE-Amp, and DGE-Amx) were tested against 6 strains of E. coli. Four of them are non-pathogenic strains, namely K-12, B, H9049, and 25922, and the other two are uropathogenic clinical isolates, namely UTI89 and CFT073.

[8] = test system: E. coli CFT073 in the presence of S. aureus 25923; test: Co-culture of E. coli CFT073 and S. aureus 25923; format: cell-based, Escherichia coli; settings: co-culture in a 1:1 ratio
Text: (FIG. 20A) Images showing three cultures untreated with any antibiotics: E. coli CFT073, S. aureus 25923, and E. coli CFT073 and S. aureus 25923 co-culture (in a 1:1 ratio). (FIG. 20B) Images showing co-cultures of E. coli CFT073 and S. aureus 25923 (in a 1:1 ratio), in the absence of any antibiotics or in the presence of Amp, Amx, Ent-Amp, or Ent-Amx.

[9] = 50% MHB, 200 μM DP, 30° C., t=19 h

Compound	attenuation of antibacterial activity by native siderophores [1]	growth inhibition in mixed culture at 100 nM [2]	growth inhibition in mixed culture at 100 nM [3]	concentration providing complete growth inhibition [4] [nM]	strain-specific growth inhibition in the mixed culture assays [5]	concentration providing complete growth inhibition ([6]; 50% MHB, 30° C., t=19 h) [nM]	improved antibacterial activity against E. coli CFT073 over E. coli K-12 ([6]; CFT073 (FepA and IroN) versus K-12 (FepA only)) [fold]	effect of preloading Fe(III) on antibacterial activity [6, 9]	antibacterial activity against uropathogenic compared to non-pathogenic E. coli [7]	killing of E. coli CFT073 co-cultured with S. aureus 25923 [8]	concentration providing complete growth inhibition for both strains [2] [nM]	concentration providing complete growth inhibition for both strains [3] [nM]	antibacterial activity at 10 nM ([6]; 10 nM, 50% MHB, 200 μM DP, 30° C., t=19 h)
CC1(C)SC2C(NC(=O)C(NC(=O)CCCc3cn(CCOCCOCCOCCNC(=O)c4cc(O)c(O)c(C(=O)NC5COC(=O)C(NC(=O)c6cc(C7OC(CO)C(O)C(O)C7O)cc(O)c6O)COC(=O)C(NC(=O)c6cc(C7OC(CO)C(O)C(O)C7O)cc(O)c6O)COC5=O)c4)nn3)c3ccccc3)C(=O)N2C1C(=O)O (stereo not drawn) [DGE-Amp]	attenuated by Ent, MGE, or DGE	only inhibited the growth of E. coli UTI89	only inhibited the growth of E. coli CFT073	100	specifically inhibited the growth of the uropathogenic E. coli	10	100	no effect	greater antibacterial activity against the uropathogenic E. coli compared to non-pathogenic E. coli				
CC1(C)SC2C(NC(=O)C(NC(=O)CCCc3cn(CCOCCOCCOCCNC(=O)c4cc(O)c(O)c(C(=O)NC5COC(=O)C(NC(=O)c6cccc(O)c6O)COC(=O)C(NC(=O)c6cccc(O)c6O)COC5=O)c4)nn3)c3ccccc3)C(=O)N2C1C(=O)O (stereo not drawn) [Ent-Amp]	only attenuated in the presence of Ent or MGE			100				no effect		killed E. coli CFT073	100	100	slightly less active
CC1(C)SC2C(NC(=O)C(NC(=O)CCCc3cn(CCOCCOCCOCCNC(=O)c4cc(O)c(O)c(C(=O)NC5COC(=O)C(NC(=O)c6cccc(O)c6O)COC(=O)C(NC(=O)c6cccc(O)c6O)COC5=O)c4)nn3)c3ccc(O)cc3)C(=O)N2C1C(=O)O (stereo not drawn) [Ent-Amx]	only attenuated in the presence of Ent or MGE							no effect		killed E. coli CFT073			
CC1(C)SC2C(NC(=O)C(NC(=O)CCCc3cn(CCOCCOCCOCCNC(=O)c4cc(O)c(O)c(C(=O)NC5COC(=O)C(NC(=O)c6cc(C7OC(CO)C(O)C(O)C7O)cc(O)c6O)COC(=O)C(NC(=O)c6cccc(O)c6O)COC5=O)c4)nn3)c3ccccc3)C(=O)N2C1C(=O)O (stereo not drawn) [MGE-Amp]	attenuated by Ent, MGE, or DGE	only inhibited the growth of E. coli UTI89	only inhibited the growth of E. coli CFT073	100	specifically inhibited the growth of the uropathogenic E. coli	10		no effect	greater antibacterial activity against the uropathogenic E. coli compared to non-pathogenic E. coli				
